Results from US6630499B1, “Control of arthropods in animals” (Aventis CropScience, S.A., priority 1998, dated 2003).

What was measured:
Assay type in all cases: in vivo
[1] = system: cat fleas (Ctenocephalides felis); assay: Control of cat fleas on treated cats (Biological Examples 1-3); settings: cats, 20 mg/kg, 30 mg/mL in 1:1 dimethyl sulfoxide/corn oil, 1 day post-treatment, versus placebo group
Procedure: (§1) All dogs were infested with cat fleas (Ctenocephalides felis) and with ticks (Rhipicephalus sanguineus) 1 day prior to administration of the compound. Cats were only infested with fleas. The initial flea and tick counts were performed 1 day after the administration of the compounds. At 7, 14, 21 and 28 days after treatment the dogs were re-infested with ticks and 8, 15, 22 and 29 days after treatment the dogs and cats were re-infested with fleas. At 1, 9, 16, 23 and 30 days after treatment the control of fleas and ticks in treated dogs and cats was determined versus a group of infested dogs and cats which received a placebo consisting of a 1:1 volume/volume solution of dimethyl sulfoxide and corn oil. To determine the efficacies of the compounds, the arthropods were combed from the animals and counted.
(§2) The compounds listed below were formulated and tested as described in Biological Example 1, again at the dosage level of active ingredient of 10 mg/kg in dogs and 20 mg/kg in cats. Results at 1 DPT (day post-treatment) are tabulated below, where the compound numbers are the same as those listed in Tables 1, 2, 4, 5, 6, 7, 8, 9, 10, 11, 12 and 13 hereinabove.
(§3) Testing was carried out as described in Biological Example 1. […] The Huang et al compound was deemed to have insufficient activity to be tested in cats.

[2] = Emesis in treated dogs; settings: dogs, 10 mg/kg
Procedure: (§4) By the term “emesis” is meant vomiting. Generally an emetic substance elicits emesis in less than 24 hours after administration, usually less than 8 hours, more usually less than 2 hours. By the term “substantially non-emetic” is meant that, generally, when a compound or composition of the invention is administered to a population of animals, more than 70% (or at least ⅔) of the animals are free of emesis. Preferably, more than 80%, most preferably more than 90%, of said population is free of emesis.
(§5) In the animals treated with the compounds above, there was substantially no emesis after 2, 8 and 24 hours. Generally long-term control of fleas and ticks was provided in dogs. In the cats treated, there was commercially acceptable control of fleas for at least one day post treatment.
as §2

[3] = system: ticks (Rhipicephalus sanguineus); assay: Control of ticks on treated dogs (Biological Examples 1-3); settings: dogs, 10 mg/kg, 30 mg/mL in 1:1 dimethyl sulfoxide/corn oil, 1 day post-treatment, versus placebo group
Procedure: as §1, §2, §3

[4] = Emesis in treated cats; settings: cats, 20 mg/kg
Procedure: as §4, §5, §2

[5] = system: cat fleas (Ctenocephalides felis); assay: Control of cat fleas on treated dogs (Biological Examples 1-3); settings: dogs, 10 mg/kg, 30 mg/mL in 1:1 dimethyl sulfoxide/corn oil, 1 day post-treatment, versus placebo group
Procedure: as §1, §2, §3

For `CC(=O)O.N#Cc1nn(-c2c(Cl)cc(C(F)(F)F)cc2Cl)c(N=CNCC(F)(F)F)c1SC(F)(F)F` [Compound 232], the “% Control 1 DPT (Fleas)” value [1] was 100%, the “% Emesis” value [2] was 0% and the “% Control 1 DPT (Fleas/Ticks): Ticks” value [3] was 35%. The “% Emesis” value [4] was 0% and the “% Control 1 DPT (Fleas/Ticks): Fleas” value [5] was 99%.
In the case of `N#Cc1nn(-c2c(Cl)cc(C(F)(F)F)cc2Cl)c(N=CNCC(F)(F)F)c1SC(F)(F)F.O=C(O)CC(O)(CC(=O)O)C(=O)O` [Compound 233], the “% Control 1 DPT (Fleas)” value [1] is reported as 95%, the “% Emesis” value [2] is reported as 0% and the “% Control 1 DPT (Fleas/Ticks): Ticks” value [3] is reported as 77%. The “% Emesis” value [4] was 0% and the “% Control 1 DPT (Fleas/Ticks): Fleas” value [5] was 100%.
